Assay type in all cases: in vivo
Assay [1] deals with Centaurea cyanis. The experiment in a line: Greenhouse trial, post-emergence, visual herbicidal effect. The settings on record: alone. A digest of the protocol: (§1)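 Visual percent damage, where 0% means no effect and 100% total plant death, is given relative to untreated plants. Seedlings raised in sandy loam under optimum greenhouse conditions received single or combined herbicide treatments post-emergence at a spray volume of 300 l/ha.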

The test system of assay [2] is Papaver rhoeas. Described as above. Particulars: alone. A digest of the protocol: as §1
Assay [3] concerns Polygonum convolvulus. The assay is described as above. Particulars: alone. A digest of the protocol: as §1
The subject of assay [4] is Veronica hederifolia. The description is as above. The settings on record: Table 5-89, greenhouse, alone. In outline:
as §1

The test system of assay [5] is Viola tricolor. The description is as above. The settings on record: alone. A digest of the protocol:
as §1

Assay [6] deals with Cassia obtusifolia. The assay is described as follows: Field trial, post-emergence, visual scoring. The settings on record: Table 5-25, field, alone, 210 g of a.i./ha.
Assay [7] relates to Galium aparine. The assay is described as follows: Field trial, post-emergence, visual scoring. The settings on record: alone.
Assay [8] relates to Polygunum convolvulus. The experiment in a line: Field trial, post-emergence, visual scoring. Particulars: Table 5-53, field, alone.
Assay [9] deals with Veronica hederifolia. The experiment in a line: Field trial, post-emergence, visual scoring. Particulars: alone, 210 g of a.i./ha.
Assay [10] concerns broad-leaved weeds/weed grasses. The assay is described as follows: Field trial, post-emergence, visual scoring (species not listed above). Particulars: dosage 210 g of a.i./ha. Here is the method:
The tests were conducted outdoors (plot trials, 10 m^2 per plot, 2 repetitions, spray application with 200-300 liters of water per hectare). Crops and broad-leaved weeds/weed grasses were sown under customary field conditions. In addition, a natural weed flora also appeared. Application was by the post-emergence method. The application rates of the herbicidally active compounds applied on their own or in combinations are likewise shown in the tables below. Evaluations were by visual scoring (using a 0-100% scale) after application by comparison of treated and untreated test variants.
The abbreviations denote: • a.i.=active ingredient • E^C=expected value according to Colby (E^C=A+B−A×B100) • Δ=difference (%) of the measured value to the expected value (%) (measured value minus expected value)
Evaluation: • measured value E is greater than E^C:→synergism (+Δ) • measured value E equals E^C:→additive effect • measured value E is smaller than E^C:→antagonism (−Δ)

The test system of assay [11] is Centaurea cyanis. The assay is described as follows: Field trial, post-emergence, visual scoring. Particulars: Table 5-59, field, alone.
The subject of assay [12] is Avena fatua. The assay is described as follows: Greenhouse trial, post-emergence, visual herbicidal effect. The settings on record: alone. A digest of the protocol:
as §1

For assay [13], the system named is Phalaris minor. The description is as above. Particulars: Table 5-03, greenhouse, alone, 25 g of a.i./ha. A digest of the protocol: as §1
Assay [14] relates to Alopecurus myosuroides. The experiment in a line: Field trial, post-emergence, visual scoring. The settings on record: Table 5-60, field, alone.
The test system of assay [15] is Amaranthus retroflexus. The experiment in a line: Field trial, post-emergence, visual scoring. The settings on record: Table 5-48, field, alone, 560 g of a.i./ha.
Assay [16] deals with Euphorbia heterophylla. The experiment in a line: Field trial, post-emergence, visual scoring.
Assay [17] relates to Portulaca oleracea. The experiment in a line: Field trial, post-emergence, visual scoring. Particulars: Table 5-13, field, alone, 250 g of a.i./ha.
For assay [18], the system named is Ambrosia artemisiifolia. The experiment in a line: Greenhouse trial, post-emergence, visual herbicidal effect. Particulars: Table 5-52, greenhouse, alone, 4 g of a.i./ha. In outline: as §1
The subject of assay [19] is Lolium multiflorum. The experiment in a line: Field trial, post-emergence, visual scoring. The settings on record: alone, 25 g of a.i./ha.
Assay [20] has as its system Brachiaria platyphylla. The assay is described as follows: Greenhouse trial, post-emergence, visual herbicidal effect. Particulars: alone. In outline:
as §1

In assay [21] the test system is Xanthium strumarium. The description is as above. Particulars: Table 5-56, greenhouse, alone, 1 g of a.i./ha. A digest of the protocol:
as §1

With `CCc1cc(C)cc(CC)c1-c1c(OC(=O)C(C)(C)C)n2n(c1=O)CCOCC2` [pinoxaden], the “Activity [%] against Centaurea cyanis” value is reported as 0% in assay [1] (Table 5-38, greenhouse, 5 g of a.i./ha) and 15% in assay [1] (Table 5-40, greenhouse, 5 g of a.i./ha). The “Activity [%] against Papaver rhoeas” value in assay [2] (Table 5-39, greenhouse, 5 g of a.i./ha) is given as 0%; in assay [2] (Table 5-41, greenhouse, 10 g of a.i./ha), 10%; in assay [2] (Table 5-86, greenhouse, 10 g of a.i./ha), 0%; in [2] (Table 5-87, greenhouse, 10 g of a.i./ha), 50%. In assay [3] (Table 5-88, greenhouse, 10 g of a.i./ha), the “Activity [%] against Polygonum convolvulus” value came to 0%. The “Activity [%] against Veronica hederifolia” value in assay [4] (10 g of a.i./ha) was 20%. For the same compound, the “Activity [%] against Viola tricolor” value in assay [5] (Table 5-42, greenhouse, 10 g of a.i./ha) came to 0%.
Regarding `N#Cc1cc(Br)c(O)c(Br)c1` [bromoxynil], in assay [6], the “Activity [%] against Cassia obtusifolia” value is given as 10%. In addition, the “Activity [%] against Galium aparine” value in assay [7] (Table 5-04, field, 210 g of a.i./ha) is given as 13%; in assay [7] (Table 5-62, field, 210 g of a.i./ha) it was 13%; in assay [7] (Table 5-92, field, 210 g of a.i./ha), 25%. In addition, in assay [8] (210 g of a.i./ha), the “Activity [%] against Polygunum convolvulus” value was 30%. In addition, the “Activity [%] against Veronica hederifolia” value in [9] (Table 5-66, field) came out at 5%; in [9] (Table 5-74, field), 5%; in [9] (Table 5-76, field), 0%; in assay [9] (Table 5-79, field), 5%. Also, the “Activity [%] against Stellaria media” value in assay [10] (Table 5-114) was 10%; in [10] (Table 5-116), 5%.
Turning to `CC(C)N(C(=O)COc1nnc(C(F)(F)F)s1)c1ccc(F)cc1` [flufenacet], the “Activity [%] against Centaurea cyanis” value in assay [11] (240 g of a.i./ha) is 0%.
Turning to `CCOC(=O)[C@@H](C)Oc1ccc(Oc2nc3ccc(Cl)cc3o2)cc1` [fenoxaprop-P-ethyl], the “Activity [%] against Avena fatua” value in [12] (Table 5-01, greenhouse, 25 g of a.i./ha) was 0%; in assay [12] (Table 5-05, greenhouse, 12.5 g of a.i./ha), 0%; in [12] (Table 5-07, greenhouse, 12.5 g of a.i./ha), 0%; in assay [12] (Table 5-49, greenhouse, 25 g of a.i./ha) it was 0%. Also, in [1] (Table 5-50, greenhouse, 25 g of a.i./ha), the “Activity [%] against Centaurea cyanis” value is given as 0%. For the same compound, the “Activity [%] against Papaver rhoeas” value in assay [2] (Table 5-06, greenhouse, 12.5 g of a.i./ha) is given as 20%. For the same compound, the “Activity [%] against Phalaris minor” value in [13] came out at 15%. Moreover, in assay [3] (Table 5-08, greenhouse, 25 g of a.i./ha), the “Activity [%] against Polygonum convolvulus” value is recorded as 0%. Besides, the “Activity [%] against Viola tricolor” value in assay [5] (Table 5-02, greenhouse, 25 g of a.i./ha) came out at 0%; in [5] (Table 5-09, greenhouse, 12.5 g of a.i./ha) it was 15%. Besides, in assay [14] (83 g of a.i./ha), the “Activity [%] against Alopecurus myosuroides” value came out at 30%.
Turning to `Cn1nnnc1NC(=O)c1ccc(S(C)(=O)=O)c(OCC2CC2)c1Cl` [A1-74], the “Activity [%] against Papaver rhoeas” value in assay [2] (Table 5-86, greenhouse, 3 g of a.i./ha) was determined as 30%; in assay [2] (Table 5-87, greenhouse, 3 g of a.i./ha), 40%. For the same compound, in [3] (Table 5-88, greenhouse, 3 g of a.i./ha), the “Activity [%] against Polygonum convolvulus” value is given as 0%. Also, in assay [4] (3 g of a.i./ha), the “Activity [%] against Veronica hederifolia” value is 40%.
Take `CCNc1nc(Cl)nc(NC(C)C)n1` [atrazine]: in assay [15], the “Activity [%] against Amaranthus retroflexus” value is listed as 60%. For the same compound, the “Activity [%] against Euphorbia heterophylla” value in assay [16] (Field, dosage 1000 g of a.i./ha) is 55%; in assay [16] (Table 5-51, field, alone, 1000 g of a.i./ha) it was 49%; in assay [16] (Table 5-63, field, alone, 1000 g of a.i./ha), 49%; in assay [16] (Table 5-85, field, alone, 1000 g of a.i./ha), 49%. Besides, in assay [17], the “Activity [%] against Portulaca oleracea” value was found to be 25%.
As for `Cc1ccc(C(=O)Nc2nnnn2C)c(Cl)c1S(C)(=O)=O` [A1-49], the “Activity [%] against Ambrosia artemisiifolia” value in assay [18] is on record as 80%. Besides, the “Activity [%] against Lolium multiflorum” value in [19] (Table 5-54, field) turned out to be 40%. For the same compound, the “Activity [%] against Polygunum convolvulus” value in [8] (25 g of a.i./ha) was 35%.
With `COCc1c(S(C)(=O)=O)ccc(C(=O)Nc2nnnn2C)c1Cl` [A1-60], the “Activity [%] against Brachiaria platyphylla” value is reported as 0% in assay [20] (Table 5-55, greenhouse, 1 g of a.i./ha) and 40% in [20] (Table 5-57, greenhouse, 2 g of a.i./ha). In addition, in [21], the “Activity [%] against Xanthium strumarium” value was 25%. Moreover, the “Activity [%] against Alopecurus myosuroides” value in assay [14] (25 g of a.i./ha) was determined as 15%. In addition, the “Activity [%] against Centaurea cyanis” value in assay [11] (25 g of a.i./ha) stood at 45%. In assay [16] (Table 5-63, field, alone, 25 g of a.i./ha), the “Activity [%] against Euphorbia heterophylla” value came to 30%. Moreover, the “Activity [%] against Galium aparine” value in assay [7] (Table 5-61, field, 25 g of a.i./ha) worked out at 30%; in assay [7] (Table 5-62, field, 25 g of a.i./ha), 73%. Further, the “Activity [%] against Lolium multiflorum” value in [19] (Table 5-58, field) was found to be 15%.

The values above are taken from patent US9867376B2, “Herbicidal compositions comprising N-tetrazol-5-yl)- or N-(triazol-5-yl)arylcarboxamides” (priority 2012, dated 2018).
